# Test: log P by HPLC on reversed-phase column (EEC Directive 79/831 Annex V.A8)
# Format: physicochemical
# Experimental: In table 1, the log P values were determined in accordance with EEC Directive 79/831 Annex V.A8 by HPLC (High Performance Liquid Chromatography) on a reversed-phase column (C18), using the method described below: Temperature: 40° C.; […]
row,logP,Compound
1,4.56,CCCN(CCOc1c(Cl)cc(Cl)cc1Cl)C(=O)c1c(C(F)F)nn(C)c1Cl [Example 205]
2,2.14,Cn1nc(C(F)F)c(C(=O)NCC#Cc2ccco2)c1F [Example 280]
3,2.44,CN(CC(=O)OCc1ccccc1)C(=O)c1c(C(F)F)nn(C)c1F [Example 226]
4,5.81,CCCCCCC1CCCCC1NC(=S)c1c(C(F)F)nn(C)c1F (stereo not drawn) [Example 327]
5,5.08,Cn1nc(C(F)F)c(C(=O)N(CCOc2c(Cl)cc(Cl)cc2Cl)C2CCCC2)c1F [Example 209]
6,2.56,Cn1nc(C(F)F)c(C(=O)NCC(=O)Nc2c(Cl)cc(Cl)cc2Cl)c1Cl [Example 198]
7,3.00,Cn1nc(C(F)F)c(C(=O)NC2(C(F)(F)F)CCCCC2)c1F [Example 387]
8,4.96,CC1CC(N(C(=S)c2c(C(F)F)nn(C)c2F)C2CC2)CC(C)(C)C1 (stereo not drawn) [Example 323]
9,4.16,C=CCC1CCCCC1N(C(=O)c1c(C(F)F)nn(C)c1Cl)C1CC1 (stereo not drawn) [Example 347]
10,2.96,CCCN(CC(=O)Nc1c(Cl)cc(Cl)cc1Cl)C(=O)c1c(C(F)F)nn(C)c1F [Example 200]
11,3.35,CC(C)C(C(=O)OCc1ccccc1)N(C)C(=O)c1c(C(F)F)nn(C)c1F (stereo not drawn) [Example 227]
12,2.90,CC#CC1(NC(=O)c2c(C(F)F)nn(C)c2F)CCCCC1 [Example 382]
13,3.96,CN(C(=O)c1c(C(F)F)nn(C)c1Cl)C(COc1ccc2ccccc2c1)C1CC1 (racemic) [Example 140]
14,3.92,CC(COc1c(Cl)cc(Cl)cc1Cl)NC(=O)c1c(C(F)F)nn(C)c1F (stereo not drawn) [Example 212]
15,2.70,Cn1nc(C(F)F)c(C(=O)N(CC#Cc2ccco2)C2CC2)c1F [Example 279]
16,2.64,Cn1nc(C(F)F)c(C(=O)NCCOc2c(F)cccc2F)c1Cl [Example 160]
17,3.11,CC#CC1(NC(=O)c2c(C(F)F)nn(C)c2Cl)CCCCC1 [Example 383]
18,3.15,Cn1nc(C(F)F)c(C(=O)NC2(C(F)(F)F)CCCCC2)c1Cl [Example 386]
19,5.01,Cn1nc(C(F)F)c(C(=S)NC2CCCC2CCC(C)(C)C)c1F (stereo not drawn) [Example 321]
20,1.40,COCCCCNC(=O)c1c(C(F)F)nn(C)c1F [Example 305]
21,4.39,CCCCC1CCCC1NC(=S)c1c(C(F)F)nn(C)c1F (stereo not drawn) [Example 308]
22,3.94,C=CCC1CCCCC1N(C(=O)c1c(C(F)F)nn(C)c1F)C1CC1 (stereo not drawn) [Example 346]
23,4.20,CC(COc1c(Cl)cc(Cl)cc1Cl)NC(=O)c1c(C(F)F)nn(C)c1Cl (stereo not drawn) [Example 211]
24,5.60,Cn1nc(C(F)F)c(C(=S)NC2CCCCC2CCC(C)(C)C)c1Cl (stereo not drawn) [Example 356]
25,3.85,Cn1nc(C(F)F)c(C(=O)N(CC#Cc2cc3ccccc3s2)C2CC2)c1F [Example 276]
26,1.76,CN(CCN(C)C(=O)c1c(C(F)F)nn(C)c1Cl)C(=O)c1ccccc1 [Example 231]

row,logP,Compound
1,3.73,Cn1nc(C(F)F)c(C(=O)N(CC#Cc2ccccc2)C2CCCC2)c1F [Example 273]
2,2.86,COCCN(CC=Cc1ccccc1)C(=O)c1c(C(F)F)nn(C)c1F [Example 266]
3,2.26,Cn1nc(C(F)F)c(C(=O)NC2CCCC2Sc2ncccn2)c1Cl (stereo not drawn) [Example 257]
4,4.51,CC(C)N(CCOc1c(Cl)cc(Cl)cc1Cl)C(=O)c1c(C(F)F)nn(C)c1F [Example 203]
5,3.37,Cc1ccc(C#CCN(C(=O)c2c(C(F)F)nn(C)c2F)C2CC2)s1 [Example 286]
6,3.13,Cc1cccc(C)c1OCCNC(=O)c1c(C(F)F)nn(C)c1Cl [Example 152]
7,3.67,CN(C(=O)c1c(C(F)F)nn(C)c1Cl)C(COc1ccccc1Cl)C1CC1 (racemic) [Example 146]
8,4.44,CCC1(C)CC(NC(=O)c2c(C(F)F)nn(C)c2Cl)CC(C)(C)C1 (stereo not drawn) [Example 362]
9,3.79,CC(CCc1ccc(Cl)cc1Cl)NC(=O)c1c(C(F)F)nn(C)c1F (stereo not drawn) [Example 186]
10,3.27,CC(CSCc1ccco1)N(C(=O)c1c(C(F)F)nn(C)c1Cl)C1CC1 (stereo not drawn) [Example 237]
11,2.78,CN(CC#Cc1ccccc1)C(=O)c1c(C(F)F)nn(C)c1F [Example 269]
12,3.96,Cn1nc(C(F)F)c(C(=O)N(CC#Cc2ccccc2)C(C)(C)C)c1Cl [Example 268]
13,2.64,CC(CSCc1ccco1)N(C)C(=O)c1c(C(F)F)nn(C)c1Cl (stereo not drawn) [Example 239]
14,2.82,Cn1nc(C(F)F)c(C(=O)NC(C)(C)C#Cc2ccc(C#N)cc2)c1F [Example 284]
15,3.72,CN(C(=O)c1c(C(F)F)nn(C)c1F)C1CCCCC1Cc1ccccc1 (stereo not drawn) [Example 253]
16,3.83,Cn1nc(C(F)F)c(C(=O)N(CC#Cc2ccccc2)C(C)(C)C)c1F [Example 267]
17,2.56,C#CC1(NC(=O)c2c(C(F)F)nn(C)c2F)CCCCC1 [Example 385]
18,3.87,CN(C(=O)c1c(C(F)F)nn(C)c1Cl)C1CCCCC1Cc1ccccc1 (stereo not drawn) [Example 254]
19,2.32,CN(CC#Cc1ccco1)C(=O)c1c(C(F)F)nn(C)c1F [Example 281]
20,4.56,CC(CC1CCCCC1)N(C(=O)c1c(C(F)F)nn(C)c1Cl)C1CC1 (stereo not drawn) [Example 371]
21,4.15,Cn1nc(C(F)F)c(C(=O)NC2CCCCC2C(C)(C)C)c1Cl (stereo not drawn) [Example 348]
22,3.55,Cn1nc(C(F)F)c(C(=O)N(CC#Cc2cc3ccccc3o2)C2CC2)c1F [Example 275]
23,3.19,Cn1nc(C(F)F)c(C(=O)NCC#Cc2cc3ccccc3s2)c1F [Example 277]
24,3.55,Cn1nc(C(F)F)c(C(=O)N(CCOc2c(Cl)cc(Cl)cc2Cl)C2COC2)c1Cl [Example 207]
25,2.92,CN(CC#Cc1ccccc1)C(=O)c1c(C(F)F)nn(C)c1Cl [Example 270]
26,3.02,CCN(CC=Cc1ccccc1)C(=O)c1c(C(F)F)nn(C)c1F [Example 264]

# More lines, now with the values behind:
row,Compound,logP
1,CCCN(CCOc1ccc(Cl)cc1)C(=O)c1c(C(F)F)nn(C)c1Cl [Example 54],3.67
2,Cn1nc(C(F)F)c(C(=O)NC(COc2ccc3ccccc3c2)C2CC2)c1Cl (racemic) [Example 138],3.94
3,Cn1nc(C(F)F)c(C(=O)NCCCc2cc3ccccc3o2)c1F [Example 92],2.90
4,Cn1nc(C(F)F)c(C(=O)N(CCCC2CCCO2)C2CC2)c1F (stereo not drawn) [Example 114],2.21
5,Cn1nc(C(F)F)c(C(=O)N(CCCc2cccs2)C2CC2)c1F [Example 102],3.04
6,Cn1nc(C(F)F)c(C(=O)N(CCCc2ccco2)C2CC2)c1F [Example 99],2.75
7,CCCN(CCOc1ccc(C(=O)OCC)cc1)C(=O)c1c(C(F)F)nn(C)c1Cl [Example 72],3.44
8,Cn1nc(C(F)F)c(C(=O)N(CCOc2ccc(Cl)cc2)C2CCCC2)c1F [Example 55],4.13
9,CCCN(CCOc1ccc(C(=O)OCC)cc1)C(=O)c1c(C(F)F)nn(C)c1F [Example 73],3.31
10,Cn1nc(C(F)F)c(C(=O)N(CCCc2cc3ccccc3o2)C2CC2)c1F [Example 91],3.52
11,CC(C)N(CC(=O)Nc1ccccc1)C(=O)c1c(C(F)F)nn(C)c1Cl [Example 2],2.43
12,Cn1nc(C(F)F)c(C(=O)N(CCOc2ccc(Cl)cc2)C2CCC2)c1Cl [Example 52],3.99
13,Cn1nc(C(F)F)c(C(=O)NCCS(=O)(=O)c2ccc(Cl)cc2)c1Cl [Example 59],2.30
14,CC(C)N(CCOc1ccc(Cl)cc1)C(=O)c1c(C(F)F)nn(C)c1Cl [Example 53],3.78
15,Cn1nc(C(F)F)c(C(=O)NC(CCc2ccc(Cl)cc2)C(C)(C)C)c1F (stereo not drawn) [Example 60],4.24
16,CCCN(C(=O)c1c(C(F)F)nn(C)c1Cl)C(C)COc1ccccc1-c1ccccc1 (stereo not drawn) [Example 31],4.51
17,Cn1nc(C(F)F)c(C(=O)NCCCc2cc3ccccc3s2)c1F [Example 95],3.17
18,CC(CCc1ncc(C(F)(F)F)cc1Cl)N(C(=O)c1c(C(F)F)nn(C)c1F)C1CC1 (stereo not drawn) [Example 86],3.92

row,Compound,logP
1,Cn1nc(C(F)F)c(C(=O)N(CCOc2ccc(Cl)cc2)C2CCC2)c1F [Example 50],3.78
2,CN(CCCc1cc2ccccc2s1)C(=O)c1c(C(F)F)nn(C)c1F [Example 96],3.25
3,Cn1nc(C(F)F)c(C(=O)NC(C)(C)C(=O)Nc2ccccc2)c1Cl [Example 25],2.27
4,Cc1cc(C)nc(CCC(C)NC(=O)c2c(C(F)F)nn(C)c2Cl)c1 (stereo not drawn) [Example 64],1.81
5,Cc1ccsc1CCCN(C(=O)c1c(C(F)F)nn(C)c1F)C1CC1 [Example 105],3.33
6,CN(CC(NC(=O)c1c(C(F)F)nn(C)c1Cl)C1CC1)c1ccccc1 (stereo not drawn) [Example 18],3.31
7,Cc1ccc(C(C)CCN(C)C(=O)c2c(C(F)F)nn(C)c2Cl)o1 (stereo not drawn) [Example 110],3.02
8,Cn1nc(C(F)F)c(C(=O)NCCS(=O)(=O)c2ccc(Cl)cc2)c1F [Example 58],2.10
9,Cn1nc(C(F)F)c(C(=O)NC(CCc2ccc(Cl)cc2)C(C)(C)C)c1Cl (stereo not drawn) [Example 61],4.41
10,CN(CCCc1cc2ccccc2o1)C(=O)c1c(C(F)F)nn(C)c1F [Example 93],3.00
11,CC(CCc1ncc(C(F)(F)F)cc1Cl)N(C(=O)c1c(C(F)F)nn(C)c1Cl)C1CC1 (stereo not drawn) [Example 85],4.11
12,CCC(CCc1sccc1Br)NC(=O)c1c(C(F)F)nn(C)c1Cl (stereo not drawn) [Example 90],3.63
13,CC(CCc1ncc(C(F)(F)F)cc1Cl)N(C)C(=O)c1c(C(F)F)nn(C)c1F (stereo not drawn) [Example 87],3.29
14,Cc1ccc2sc(CCCN(C(=O)c3c(C(F)F)nn(C)c3F)C3CC3)cc2c1 [Example 106],4.21
15,CC(CCc1cccs1)N(C(=O)c1c(C(F)F)nn(C)c1Cl)C1CC1 (stereo not drawn) [Example 103],3.57
16,Cn1nc(C(F)F)c(C(=O)NC2(C(=O)Nc3ccccc3)CCCC2)c1F [Example 3],2.46
17,CC(COc1ccccc1)N(C)C(=O)c1c(C(F)F)nn(C)c1Cl (stereo not drawn) [Example 15],2.78
